How the values were obtained:
Assay type in all cases: in vivo
Avena fatua = test: Greenhouse pre-emergence herbicidal activity on AVEFA; details: 20 DAT; for herbicidal activity (%): herbicide A solo
Protocol: (§1) The test plants have been seeded, separately for each species, in plastic containers in sandy loamy soil containing 5% of organic matter.
(§2) The containers were irrigated gently to promote germination and growth and subsequently covered with transparent plastic hoods until the plants had rooted.
(§3) The plants have been cultivated due to their individual requirements at 10-25° C. and 20-35° C.
(§4) The plants were irrigated due to their necessity.
(§5) The racemic mixture (±)-2-exo-(2-Methylbenzyloxy)-1-methyl-4-isopropyl-7-oxabicyclo[2.2.1]heptane was used as herbicide A and formulated as an emulsifiable concentrate with an active ingredient concentration of 750 g/l.
(§6) Pethoxamid (herbicide B) was used as an emulsifiable concentrate formulation having an active ingredient concentration of 600 g/l.
(§7) In the following experiments, the herbicidal activity for the individual herbicidal compositions (solo and mixture applications) was assessed 20 days after treatment (DAT).
(§8) The evaluation for the damage on undesired weeds caused by the chemical compositions was carried out using a scale from 0 to 100%, compared to the untreated control plants. Here, 0 means no damage and 100 means complete destruction of the plants.
(§9) E=X+Y−(X·Y/100) where • X=effect in percent using herbicide A at an application rate a; • Y=effect in percent using herbicide B at application rate b; • E=expected effect (in %) of herbicide A+herbicide B at application rates a+b.
(§10) The value E corresponds to the effect (plant damage or injury) which is to be expected if the activity of the individual compounds is additive.
(§11) Table 1 below relates to the herbicidal activity, in greenhouse trials, of the individual actives and the combinations applied at different rates and ratios, in pre-emergence application at 20 days after treatment (DAT).

Sorghum halepense = test: Greenhouse pre-emergence herbicidal activity on SORHA; details: 20 DAT
Protocol: as §1, §2, §3, §4, §5, §6, §7
(§12) The evaluation for the damage on undesired weeds caused by the chemical compositions was carried out using a scale from 0 to 100%, compared to the untreated control plants. Here, 0 means no damage and 100 means complete destruction of the plants. […]

Lolium multiflorum = test: Greenhouse pre-emergence herbicidal activity on LOLMU; details: 20 DAT
Protocol: as §1, §2, §3, §4, §5, §6, §7, §12

Chenopodium album = test: Greenhouse pre-emergence herbicidal activity on CHEAL; details: 20 DAT
Protocol: as §1, §2, §3, §4, §5, §6, §7, §12

Setaria viridis = test: Greenhouse pre-emergence herbicidal activity on SETVI; details: 20 DAT
Protocol: as §1, §2, §3, §4, §5, §6, §7, §12

Brassica napus = test: Greenhouse pre-emergence herbicidal activity on BRSNW; details: 20 DAT
Protocol: as §1, §2, §3, §4, §5, §6, §7, §12

Alopecurus myosuroides = test: Greenhouse pre-emergence herbicidal activity on ALOMY; details: 20 DAT
Protocol: as §1, §2, §3, §4, §5, §6, §7, §12

Abutilon theophrasti = test: Greenhouse pre-emergence herbicidal activity on ABUTH; details: 20 DAT
Protocol: as §1, §2, §3, §4, §5, §6, §7, §12

Polygonum convolvulus = test: Greenhouse pre-emergence herbicidal activity on POLCO; details: 20 DAT; for herbicidal activity (%): herbicide A solo
Protocol: as §1, §2, §3, §4, §5, §6, §7, §8, §9, §10, §11

Anthemis arvensis = test: Greenhouse pre-emergence herbicidal activity on ANTAR; details: 20 DAT; for herbicidal activity (%): herbicide A solo
Protocol: as §1, §2, §3, §4, §5, §6, §7, §8, §9, §10, §11

[1] = herbicide A solo, 31.25 g ai/ha

Compound: CCOCCN(C(=O)CCl)C(=C(C)C)c1ccccc1 [pethoxamid, 2-chloro-N-(2-ethoxyethyl)-N-(2-methyl-1-phenylprop-1-enyl)acetamide]
- inhibition at 125 g/ha (Avena fatua; Avena fatua, 480 h, pethoxamid solo, 125 g ai/ha): 40%
- inhibition at 250 g/ha (Avena fatua; Avena fatua, 480 h, pethoxamid solo, 250 g ai/ha): 40%
- inhibition at 500 g/ha (Avena fatua; Avena fatua, 480 h, pethoxamid solo, 500 g ai/ha): 50%
- inhibition at 125 g/ha (Sorghum halepense; Sorghum halepense, 480 h, pethoxamid solo, 125 g ai/ha): 85%
- inhibition at 62.5 g/ha (Lolium multiflorum; Lolium multiflorum, 480 h, pethoxamid solo, 62.5 g ai/ha): 50%
- inhibition at 62.5 g/ha (Chenopodium album; Chenopodium album, 480 h, pethoxamid solo, 62.5 g ai/ha): 40%
- inhibition at 62.5 g/ha (Setaria viridis; Setaria viridis, 480 h, pethoxamid solo, 62.5 g ai/ha): 80%
- inhibition at 500 g/ha (Brassica napus; Brassica napus, 480 h, pethoxamid solo, 500 g ai/ha): 0%
- inhibition at 125 g/ha (Alopecurus myosuroides; Alopecurus myosuroides, 480 h, pethoxamid solo, 125 g ai/ha): 35%
- inhibition at 62.5 g/ha (Abutilon theophrasti; Abutilon theophrasti, 480 h, pethoxamid solo, 62.5 g ai/ha): 20%
- inhibition at 125 g/ha (Polygonum convolvulus; Fallopia convolvulus, 480 h, pethoxamid solo, 125 g ai/ha): 15%
- inhibition at 250 g/ha (Polygonum convolvulus; Fallopia convolvulus, 480 h, pethoxamid solo, 250 g ai/ha): 15%
- inhibition at 500 g/ha (Polygonum convolvulus; Fallopia convolvulus, 480 h, pethoxamid solo, 500 g ai/ha): 30%
- inhibition at 62.5 g/ha (Anthemis arvensis; Anthemis arvensis, 480 h, pethoxamid solo, 62.5 g ai/ha): 20%
- inhibition at 125 g/ha (Anthemis arvensis; Anthemis arvensis, 480 h, pethoxamid solo, 125 g ai/ha): 60%

Compound: (±)-2-exo-(2-Methylbenzyloxy)-1-methyl-4-isopropyl-7-oxabicyclo[2.2.1]heptane [herbicide A]
- herbicidal activity (%) (Avena fatua; 62.5 g ai/ha): 0%
- herbicidal activity (%) (Avena fatua; 125 g ai/ha): 25%
- herbicidal activity (%) (Avena fatua; 250 g ai/ha): 35%
- herbicidal activity (%) (Sorghum halepense; herbicide A solo, 62.5 g ai/ha): 80%
- herbicidal activity (%) (Lolium multiflorum; [1]): 60%
- herbicidal activity (%) (Chenopodium album; [1]): 40%
- herbicidal activity (%) (Setaria viridis; [1]): 90%
- herbicidal activity (%) (Brassica napus; herbicide A solo, 250 g ai/ha): 0%
- herbicidal activity (%) (Alopecurus myosuroides; herbicide A solo, 62.5 g ai/ha): 98%
- herbicidal activity (%) (Abutilon theophrasti; [1]): 30%
- herbicidal activity (%) (Polygonum convolvulus; 62.5 g ai/ha): 0%
- herbicidal activity (%) (Polygonum convolvulus; 125 g ai/ha): 0%
- herbicidal activity (%) (Polygonum convolvulus; 250 g ai/ha): 15%
- herbicidal activity (%) (Anthemis arvensis; 31.25 g ai/ha): 0%
- herbicidal activity (%) (Anthemis arvensis; 62.5 g ai/ha): 0%

— patent US11116213B2, “Herbicidal composition comprising cinmethylin and pethoxamid” (BASF Agro B.V., priority 2015, dated 2021)
